Data as given in patent publication US8802597B2, “Herbicidal pyrimidines” (E I du Pont de Nemours and Company, priority 2003, dated 2014).

Experiments:
Format in all cases: in vivo
[1] = system: eastern black nightshade (Solanum ptycanthum); assay: Test C pre/postemergence; details: Preemergence, scale 0 to 100, 0 no effect, 100 complete control
Outline: (§1)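 Visual injury ratings, 0 (no effect) to 100 (complete control), made 12 to 14 days after treatment by comparison with untreated controls. Greenhouse plants received test chemical in a surfactant-containing non-phytotoxic solvent, either preemergence on planted seeds or postemergence at the 1- to 4-leaf stage.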

[2] = system: velvetleaf (Abutilon theophrasti); assay: Test C pre/postemergence; details: for Plant response rating, Velvetleaf: Preemergence, scale 0 to 100, 0 no effect, 100 complete control
Outline: as §1

[3] = system: yellow nutsedge (Cyperus esculentus); assay: Test C pre/postemergence; details: for Plant response rating, Nutsedge, Yellow: Preemergence, scale 0 to 100, 0 no effect, 100 complete control
Outline: as §1

[4] = system: barnyardgrass (Echinochloa crus-galli); assay: Test E flooded paddy water application; details: Flood, 21 days, scale 0 to 100 (0 no effect, 100 complete control)
Outline: (§2)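 Weeds sown in sterilized Tama silt loam (2.6% organic matter), greenhouse 29.5/26.7° C, 16-h photoperiod; at 2.0–2.5-leaf stage pots flooded to 3 cm and compound added to paddy water. Visual rating vs untreated controls after 21 days, 0 (no effect) to 100 (complete control).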

[5] = system: bearded (brdd.) sprangletop (Leptochloa fusca ssp. fascicularis); assay: Test E flooded paddy water application; details: Flood, 21 days, scale 0 to 100 (0 no effect, 100 complete control)
Outline: as §2

[6] = system: ducksalad (Heteranthera limosa); assay: Test E flooded paddy water application; details: Flood, 21 days, scale 0 to 100 (0 no effect, 100 complete control)
Outline: as §2

[7] = system: early watergrass (Echinochloa oryzoides); assay: Test E flooded paddy water application; details: Flood, 21 days, scale 0 to 100 (0 no effect, 100 complete control)
Outline: as §2

[8] = system: junglerice (Echinochloa colona); assay: Test E flooded paddy water application; details: Flood, 21 days, scale 0 to 100 (0 no effect, 100 complete control)
Outline: as §2

[9] = system: late watergrass (Echinochloa oryzicola); assay: Test E flooded paddy water application; details: Flood, 21 days, scale 0 to 100 (0 no effect, 100 complete control)
Outline: as §2

[10] = system: smallflower umbrella sedge (Cyperus difformis); assay: Test E flooded paddy water application; details: Flood, 21 days, scale 0 to 100 (0 no effect, 100 complete control)
Outline: as §2

[11] = system: transplanted rice seedlings (Oryza sativa cv. ‘Japonica-M202’); assay: Test E flooded paddy water application; details: Flood, 21 days, scale 0 to 100 (0 no effect, 100 complete control)
Outline: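 Response scored visually on a 0–100 scale (100 = complete control) at 21 days against untreated pots. Treatment was into paddy water 3 cm deep over silt loam, with plants at the 2.0–2.5-leaf stage, grown under 16-h light at 29.5/26.7 °C day/night.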

[12] = system: water seeded rice seedlings (Oryza sativa cv. ‘Japonica-M202’); assay: Test E flooded paddy water application; details: Flood, 21 days, scale 0 to 100 (0 no effect, 100 complete control)
Outline: as §2

[13] = Postemergence, 125 g ai/ha, scale 0 to 100 (0 no effect, 100 complete control)

Nc1nc(-c2ccc(Cl)cc2)nc(C(=O)[O-])c1Cl.[Na+] [Compound 117]
Plant response rating, Nightshade ([1]; 16 g ai/ha): 0
Plant response rating, Nightshade ([1]; 31 g ai/ha): 5
Plant response rating, Nightshade ([1]; 62 g ai/ha): 40
Plant response rating (scale of 0 to 100), Velvetleaf ([2]; Postemergence, 16 g ai/ha): 60
Plant response rating (scale of 0 to 100), Velvetleaf ([2]; Postemergence, 31 g ai/ha): 70
Plant response rating (scale of 0 to 100), Velvetleaf ([2]; Postemergence, 62 g ai/ha): 95
Velvetleaf plant response rating [2, 13]: 95
Plant response rating, Velvetleaf ([2]; 16 g ai/ha): 0
Plant response rating, Velvetleaf ([2]; 31 g ai/ha): 50
Plant response rating, Velvetleaf ([2]; 62 g ai/ha): 65
Plant response rating (scale of 0 to 100), Nutsedge, Yellow ([3]; Postemergence, 16 g ai/ha): 5
Plant response rating (scale of 0 to 100), Nutsedge, Yellow ([3]; Postemergence, 31 g ai/ha): 50
Plant response rating (scale of 0 to 100), Nutsedge, Yellow ([3]; Postemergence, 62 g ai/ha): 50
Nutsedge, Yellow plant response rating [3, 13]: 60
Plant response rating, Nutsedge, Yellow ([3]; 16 g ai/ha): 0
Plant response rating, Nutsedge, Yellow ([3]; 31 g ai/ha): 0
Plant response rating, Nutsedge, Yellow ([3]; 62 g ai/ha): 50
Barnyardgrass plant response rating ([4]; 32 g ai/ha): 0
Barnyardgrass plant response rating ([4]; 64 g ai/ha): 0
Barnyardgrass plant response rating ([4]; 125 g ai/ha): 0
Barnyardgrass plant response rating ([4]; 250 g ai/ha): 0
Plant response rating, Barnyardgrass ([4]; 16 g ai/ha): 0
Sprangletop, Brdd. plant response rating ([5]; 32 g ai/ha): 0
Sprangletop, Brdd. plant response rating ([5]; 64 g ai/ha): 0
Sprangletop, Brdd. plant response rating ([5]; 125 g ai/ha): 0
Sprangletop, Brdd. plant response rating ([5]; 250 g ai/ha): 0
Plant response rating, Sprangletop, Brdd. ([5]; 16 g ai/ha): 0
Ducksalad plant response rating ([6]; 32 g ai/ha): 100
Ducksalad plant response rating ([6]; 64 g ai/ha): 100
Ducksalad plant response rating ([6]; 125 g ai/ha): 100
Ducksalad plant response rating ([6]; 250 g ai/ha): 100
Plant response rating, Ducksalad ([6]; 16 g ai/ha): 100
Watergrass, Early plant response rating ([7]; 32 g ai/ha): 0
Watergrass, Early plant response rating ([7]; 64 g ai/ha): 0
Watergrass, Early plant response rating ([7]; 125 g ai/ha): 0
Watergrass, Early plant response rating ([7]; 250 g ai/ha): 0
Plant response rating, Watergrass, Early ([7]; 16 g ai/ha): 0
Junglerice plant response rating ([8]; 32 g ai/ha): 0
Junglerice plant response rating ([8]; 64 g ai/ha): 0
Junglerice plant response rating ([8]; 125 g ai/ha): 0
Junglerice plant response rating ([8]; 250 g ai/ha): 0
Plant response rating, Junglerice ([8]; 16 g ai/ha): 0
Watergrass, Late plant response rating ([9]; 32 g ai/ha): 0
Watergrass, Late plant response rating ([9]; 64 g ai/ha): 0
Watergrass, Late plant response rating ([9]; 125 g ai/ha): 0
Watergrass, Late plant response rating ([9]; 250 g ai/ha): 0
Plant response rating, Watergrass, Late ([9]; 16 g ai/ha): 0
Sedge, Umbrella plant response rating ([10]; 32 g ai/ha): 85
Sedge, Umbrella plant response rating ([10]; 64 g ai/ha): 100
Sedge, Umbrella plant response rating ([10]; 125 g ai/ha): 100
Sedge, Umbrella plant response rating ([10]; 250 g ai/ha): 100
Plant response rating, Sedge, Umbrella ([10]; 16 g ai/ha): 60
Rice, Transplanted plant response rating ([11]; 32 g ai/ha): 0
Rice, Transplanted plant response rating ([11]; 64 g ai/ha): 0
Rice, Transplanted plant response rating ([11]; 125 g ai/ha): 0
Rice, Transplanted plant response rating ([11]; 250 g ai/ha): 20
Plant response rating, Rice, Transplanted ([11]; 16 g ai/ha): 0
Rice, Water Seeded plant response rating ([12]; 32 g ai/ha): 0
Rice, Water Seeded plant response rating ([12]; 64 g ai/ha): 0
Rice, Water Seeded plant response rating ([12]; 125 g ai/ha): 0
Rice, Water Seeded plant response rating ([12]; 250 g ai/ha): 0
Plant response rating, Rice, Water Seeded ([12]; 16 g ai/ha): 0
